The test system of assay [1] is RPMI-7951 melanoma cells. The assay is described as follows: Western blotting, RPMI-7951 cells. Format: cell-based, human. As to conditions: western blot, FIG. 5. How it is done: (§1) Human melanoma cell lines carrying the V600E BRAF mutation (A375, SK-MEL-28, RPMI-7951) and human prostate cancer cells (LNCaP, 22Rv1) were purchased from the American Type Culture Collection (Manassas, Va.) and grown following ATCC recommendations, in the presence of fetal bovine serum (10%), 2 mM L-glutamine and antibiotics (100 IU/ml penicillin and 100 μg/ml streptomycin) purchased from Sigma Aldrich. Cells were maintained at 37° C., 5% CO2 atmosphere.
(§2) Cells, treated with compound for 24 hr, were lysed in RIPA buffer (CST, Danvers, Mass., USA) on ice and clarified by centrifugation. Equal amounts of proteins were resolved by SDS-PAGE and immunoblotted with indicated antibodies. The antigen-antibody complex was visualized and quantitated using an Odyssey system (LI-COR, Lincoln, Nebr., USA).

The test system of assay [2] is B-raf mutants in COS cells. As to conditions: cited from earlier work.
For assay [3], the system named is B-raf V600E in melanoma cell line A375. As to conditions: cited from earlier work.
Assay [4] has as its system SK-MEL-28 melanoma cells. The assay is described as follows: Western blotting, SK-MEL-28 cells. As to conditions: SK-MEL-28, 24 hr, western blot, FIG. 1. Format: cell-based, human. How it is done:
as §1, §2

For assay [5], the system named is SK-MEL-5. Kind of assay: Cell viability assay (Cell Titer-Glo), SK-MEL-5. As to conditions: Homo sapiens; SK-MEL-5, malignant melanoma, BRAF V600E; read-out: Ganetespib IC50. It counts as cell-based. Here is the method: (§3) Cell viability was measured using the Cell Titer-Glo assay (Promega). In brief, cells were plated in 96-well plates in triplicate at optimal seeding density (determined empirically for each cell line) and incubated at 37° C., 5% CO2 atmosphere for 24 hr prior to the addition of drug or vehicle (0.3% DMSO) to the culture medium. At the end of the assay, Cell Titer-Glow was added to the wells per manufactures recommendation, shaken for two minutes and incubated for 10 minutes at room temperature. Luminescence (0.1 sec) was measured with a Victor II microplate reader (Perkin Elmer) and the resulting data were used to calculate cell viability, normalized to vehicle control.

Assay [6] concerns RVH-421. The assay is described as follows: Cell viability assay (Cell Titer-Glo), RVH-421. Format: cell-based. As to conditions: Homo sapiens; RVH-421, malignant melanoma, BRAF V600E; read-out: Ganetespib IC50. How it is done:
as §3

Assay [7] relates to LS-411N. The assay is described as follows: Cell viability assay (Cell Titer-Glo), LS-411N. Format: cell-based. As to conditions: Homo sapiens, carcinoma, BRAF V600E, read-out: Ganetespib IC50. How it is done: as §3
Assay [8] concerns RKO. Kind of assay: Cell viability assay (Cell Titer-Glo), RKO. Format: cell-based. To be noted: Homo sapiens, carcinoma, BRAF V600E, read-out: Ganetespib IC50. Here is the method:
as §3

For assay [9], the system named is A375. Kind of assay: Cell viability assay (Cell Titer-Glo), A375. Format: cell-based. As to conditions: Homo sapiens, A-375; A375, malignant melanoma, BRAF V600E; read-out: Ganetespib IC50. Here is the method: as §1, §3
Assay [10] deals with MZ7-mel. Kind of assay: Cell viability assay (Cell Titer-Glo), MZ7-mel. Format: cell-based. As to conditions: Homo sapiens, malignant melanoma, BRAF V600E, read-out: Ganetespib IC50. Here is the method: as §3
Assay [11] relates to MMAC-SF. Kind of assay: Cell viability assay (Cell Titer-Glo), MMAC-SF. Format: cell-based. As to conditions: Homo sapiens, malignant melanoma, BRAF V600E, read-out: Ganetespib IC50. Here is the method: as §3
Assay [12] relates to DBTRG-05MG. The assay is described as follows: Cell viability assay (Cell Titer-Glo), DBTRG-05MG. To be noted: Homo sapiens, glioma, BRAF V600E, read-out: Ganetespib IC50. Format: cell-based. How it is done:
as §3

In assay [13] the test system is human cancer cells harboring the V600E mutation in BRAF. The assay is described as follows: Cell viability, panel of BRAF mutant cancer cell lines. Format: cell-based. To be noted: large panel of human cancer cells harboring BRAF V600E; read-out: IC50 across panel. Here is the method:
as §3

The test system of assay [14] is IST-MEL1. Kind of assay: Cell viability assay (Cell Titer-Glo), IST-MEL1. To be noted: Homo sapiens; IST-MEL1, malignant melanoma, BRAF V600E; read-out: Ganetespib IC50. It counts as cell-based. Here is the method: as §3
Assay [15] concerns A101D. Kind of assay: Cell viability assay (Cell Titer-Glo), A101D. It counts as cell-based. As to conditions: Homo sapiens, malignant melanoma, BRAF V600E, read-out: Ganetespib IC50. How it is done: as §3
Assay [16] deals with SH-4. The assay is described as follows: Cell viability assay (Cell Titer-Glo), SH-4. To be noted: Homo sapiens; SH-4, malignant melanoma, BRAF V600E; read-out: Ganetespib IC50. It counts as cell-based. Here is the method:
as §3

Assay [17] concerns UACC-257. The assay is described as follows: Cell viability assay (Cell Titer-Glo), UACC-257. To be noted: Homo sapiens; UACC-257, malignant melanoma, BRAF V600E; read-out: Ganetespib IC50. It counts as cell-based. Here is the method:
as §3

Assay [18] relates to K5. Kind of assay: Cell viability assay (Cell Titer-Glo), K5. Format: cell-based. To be noted: Homo sapiens; K5, carcinoma, BRAF V600E; read-out: Ganetespib IC50. Here is the method:
as §3

In assay [19] the test system is HTC-C3. The assay is described as follows: Cell viability assay (Cell Titer-Glo), HTC-C3. It counts as cell-based. As to conditions: Homo sapiens; HTC-C3, carcinoma, BRAF V600E; read-out: Ganetespib IC50. How it is done: as §3
Assay [20] deals with SW872. The assay is described as follows: Cell viability assay (Cell Titer-Glo), SW872. Format: cell-based. To be noted: Homo sapiens; SW872, liposarcoma, BRAF V600E; read-out: Ganetespib IC50. How it is done:
as §3

The test system of assay [21] is HT-144. The assay is described as follows: Cell viability assay (Cell Titer-Glo), HT-144. Format: cell-based. As to conditions: Homo sapiens; HT-144, malignant melanoma, BRAF V600E; read-out: Ganetespib IC50. How it is done: as §3
The test system of assay [22] is ACN. Kind of assay: Cell viability assay (Cell Titer-Glo), ACN. It counts as cell-based. To be noted: Homo sapiens, neuroblastoma, BRAF V600E, read-out: Ganetespib IC50. Here is the method:
as §3

Assay [23] has as its system SW982. Kind of assay: Cell viability assay (Cell Titer-Glo), SW982. It counts as cell-based. To be noted: Homo sapiens; SW982, synovial sarcoma, BRAF V600E; read-out: Ganetespib IC50. How it is done: as §3
In assay [24] the test system is A375 melanoma cells. Kind of assay: Western blotting, A375 cells. Format: cell-based, human. To be noted: A375, 24 hr, western blot. Here is the method:
as §1, §2

The subject of assay [25] is RPMI-7951 melanoma cells. Kind of assay: Cell viability assay, RPMI-7951 melanoma cells. It counts as cell-based. To be noted: Homo sapiens; RPMI-7951 cells; read-out: IC90 cell killing. Here is the method:
as §1, §3

Assay [26] relates to COLO-829. Kind of assay: Cell viability assay (Cell Titer-Glo), COLO-829. It counts as cell-based. As to conditions: Homo sapiens; COLO-829, malignant melanoma, BRAF V600E; read-out: Ganetespib IC50. Here is the method: as §3
Assay [27] concerns SK-HEP-1. The assay is described as follows: Cell viability assay (Cell Titer-Glo), SK-HEP-1. To be noted: Homo sapiens, SK-HEP1; SK-HEP-1, carcinoma, BRAF V600E; read-out: Ganetespib IC50. It counts as cell-based. How it is done: as §3

The source of these data is patent US9402831B2, “Combination therapy of HSP90 inhibitors with BRAF inhibitors” (Synta Pharmaceuticals Corp., priority 2011, dated 2016).

For `Cn1cnc2c(F)c(Nc3ccc(Br)cc3Cl)c(C(=O)NOCCO)cc21` [AZD6244, reference compound], the “suppression of ERK phosphorylation” value in assay [1] (RPMI-7951 (overexpress COT), 24 hr) is listed as “neither the MEK inhibitor AZD6244 nor the BRAF inhibitor PLX-4032 were capable of suppressing ERK phosphorylation”.

As for `C=CCNC1=C2C[C@@H](C)C[C@H](OC)[C@H](O)[C@@H](C)/C=C(\C)[C@H](OC(N)=O)[C@@H](OC)/C=C\C=C(/C)C(=O)NC(=CC1=O)C2=O` [Compound 17AAG], the “degradation of B-raf mutants E586K and L597V” value in [2] (cells treated with 17AAG) is on record as “not sensitive to degradation”. The “degradation of B-raf mutants V600D, G469A, G469E, G596R, G466V, G594V” value in assay [2] (transvected into COS cells, versus wild type B-raf) is given as “degraded more rapidly than wild type B-raf”. The “B-raf degradation rate versus wild type B-raf CHL cells” value in assay [3] is on record as “degraded more rapidly”.

As for `CC(C)c1cc(-c2nnc(O)n2-c2ccc3c(ccn3C)c2)c(O)cc1O` [Ganetespib, 3-(2,4-DIHYDROXY-5- ISOPROPYL-PHENYL)-4-(1- METHYL-INDOL-5-YL)-5- HYDROXY-[1,2,4]TRIAZOLE], the “MEK and ERK activity” value in assay [4] is “loss of MEK and ERK activity”; in [1] (RPMI-7951, 24 hr), “effectively inhibited”; in assay [24] (FIG. 1), “loss of MEK and ERK activity”. The “destabilizing mutant BRAF” value in assay [4] and in assay [24] (FIG. 1) was “fully capable of destabilizing mutant BRAF” in each case. For the same compound, the concentration for half-maximal inhibition (IC50) in [5] stood at 18 nM; in [6], 26 nM; in [7], 5 nM; in assay [8], 4 nM; in assay [9] it was 20 nM; in assay [10], 26 nM. The IC50 is 31 nM in [11]; 14 nM in assay [12]; 4 to 40 nM in [13]; 4 nM in assay [14]; 9 nM in assay [15]; 12 nM in [16]. Besides, the IC50 in assay [17] was 24 nM; in assay [18], 11 nM; in assay [19], 21 nM; in assay [20], 22 nM; in [21] it was 6 nM; in assay [22], 4 nM. The values for the IC50 in assay [23], in assay [26] and in assay [27] were 10 nM, 5 nM and 9 nM, respectively. Further, in assay [1] (RPMI-7951, 24 hr), the AKT activity entry is “effectively inhibited”. The Cdc2 stability result in assay [24] (FIG. 2) was “destabilized Cdc2”. For the same compound, in [24] (FIG. 2), the “PI3K and mTOR-mediated phosphorylation of AKT and 4EBP1” value is recorded as “suppressed”. In assay [24] (FIG. 2), the “apoptosis as determined by PARP cleavage” value was “resulting in apoptosis”. In [24] (FIG. 3), the “destabilization of BRAF dimerization partner CRAF” value was “able to destabilize”. Also, the “potency in deactivating/dephosphorylating ERK versus PLX-4032 or AZD6244” value in assay [24] (FIG. 3) is “greater potency”. In addition, the IC90 in [25] was 10 nM.
